By IC50 is commonly meant the midpoint of a concentration-inhibition curve. A low value points to inhibition by little substance. In general, logD refers to the decadic logarithm of the distribution of all forms, ionised or not, between an organic phase and buffer at a given pH. Read a low logD as lower lipophilicity. A word on the Papp A→B: it is how fast a substance crosses the layer from the apical side.

The target of data set [1] is L-lactate dehydrogenase A chain (Homo sapiens, UniProt P00338). The data set can be described thus: Inhibition of LDHA (unknown origin).
For data set [2], the target named is L-lactate dehydrogenase B chain (Homo sapiens, UniProt P07195). The data set is described as follows: Inhibition of LDHB (unknown origin).
Data set [3] is described as follows: Inhibition of lactate production in human MIA PaCa-2 cells. It is filed as functional, cell-based.
A short description of data set [4]: Lipophilicity, logD of compound. It is filed as physicochemical. The following applies: octanol/water.
Data set [5] in a line: Plasma protein binding in mouse. In kind it is ADME, cell-free. The note with it: read-out: PPB.
Data set [6] can be described thus: Apparent permeability across apical to basolateral side in MDCK cells at 100 uM by HPLC analysis. It is filed as ADME, cell-based, Canis lupus familiaris. The following applies: dog.

Sequence of L-lactate dehydrogenase B chain (P07195 whole entry): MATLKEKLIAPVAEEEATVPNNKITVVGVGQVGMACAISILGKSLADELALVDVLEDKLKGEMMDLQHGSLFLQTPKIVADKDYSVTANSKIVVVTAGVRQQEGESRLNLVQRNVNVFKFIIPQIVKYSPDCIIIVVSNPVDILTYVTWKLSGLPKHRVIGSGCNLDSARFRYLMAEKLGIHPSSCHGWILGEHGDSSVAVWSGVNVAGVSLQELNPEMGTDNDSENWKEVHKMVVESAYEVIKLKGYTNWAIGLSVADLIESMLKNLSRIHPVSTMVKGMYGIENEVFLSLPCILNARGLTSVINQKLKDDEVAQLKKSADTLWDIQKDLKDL

As to `O=C1NC(c2ccc(N3CCOCC3)cc2)(c2cccc(Oc3ccc(F)cc3)n2)CC(O)=C1Sc1ccccc1Cl` (stereo in doubt; 51), the half-inhibitory concentration (IC50) in data set [1] was 0.037 µM.
In data set [1], `O=C1OC(c2ccccc2)(c2ccccn2)CC(O)=C1Sc1ccccc1Cl` (stereo in doubt; 3) displayed a half-maximal inhibitory concentration (IC50) of 2.4 µM. Compared with the last molecule, the IC50 is about 65-fold higher.
Still for that read-out and setting: with `Nc1cccc(C2(c3ccsc3)CC(O)=C(Sc3ccccc3Cl)C(=O)O2)c1` (stereo in doubt; 20) the figure was 0.013 µM; with `O=C1OC(c2ccsc2)(c2ccccc2O)CC(O)=C1Sc1ccccc1Cl` (stereo in doubt; 16), 0.0022 µM.
On the same count and under the same terms, the figure for `O=C1OC(c2ccsc2)(c2cccc(Nc3ccc(F)cc3)n2)CC(O)=C1Sc1ccccc1Cl` (stereo in doubt; 30) is 0.0029 µM.
`O=C1OC(c2ccccc2)(c2ccccc2)CC(O)=C1Sc1ccccc1Cl`: the values for the IC50 in data set [1] and in data set [2] were 1 µM and 3.1 µM, respectively.
In turn, `O=C1NC(c2cccc(NCCC3CC3)n2)(c2cccc(Nc3ccc(F)c(F)c3)n2)CC(O)=C1Sc1ccccc1Cl` (stereo in doubt; 40) returned a half-inhibitory concentration (IC50) in data set [1] of 0.013 µM.
Still for that read-out and setting: the figure for `O=C1NC(c2cccc(Nc3ccc(F)c(F)c3)n2)(c2cccc(NC3CCCCC3)n2)CC(O)=C1Sc1ccccc1Cl` (stereo in doubt; 35) is 0.0044 µM.
Take `O=C1OC(c2ccccc2)(c2ccccc2O)CC(O)=C1Sc1ccccc1Cl` (stereo in doubt; 14): the IC50 in data set [1] was found to be 0.026 µM; in data set [2], 0.075 µM.
In data set [1], `O=C1OC(c2ccsc2)(c2cccc(Nc3ccc(F)cn3)c2)CC(O)=C1Sc1ccccc1Cl` (stereo in doubt; 28) yielded an IC50 of 0.0029 µM.
Turning to `O=C1NC(c2cccc(Nc3ccc(F)c(F)c3)n2)(c2cccc(Oc3cccc4ncccc34)n2)CC(O)=C1Sc1ccccc1Cl` (stereo in doubt; 47), the IC50 in data set [1] was 0.068 µM; in data set [2], 0.65 µM.
`O=C1NC(c2cccc(NCCC3CC3)n2)(c2cccc(Nc3ccc(F)c(F)c3)n2)CC(O)=C1Sc1ccccc1Cl` (stereo in doubt; 41) registered an IC50 in data set [1] of 0.19 µM. That is a sub-micromolar value.
On to `O=C1OC(c2ccsc2)(c2ccccn2)CC(O)=C1Sc1ccccc1Cl` (stereo in doubt; 11), for which the figures for the concentration for half-maximal inhibition (IC50) in data set [1] and in data set [2] were 0.13 µM and 0.54 µM, respectively.
Take `O=C1O[C@](c2ccsc2)(c2cccc(Nc3ccc(F)cc3)c2)CC(O)=C1Sc1ccccc1Cl`: the IC50 in data set [1] was determined as 0.036 µM.
On the same count and under the same terms, the figure for `O=C1OC(c2cccs2)(c2cccs2)CC(O)=C1Sc1ccccc1Cl` is 0.09 µM.
With `O=C1NC(c2ccsc2)(c2cccc(Nc3ccc(F)c(F)c3)n2)CC(O)=C1Sc1ccccc1Cl` (stereo in doubt; 38), the IC50 in data set [1] was determined as 0.01 µM; in data set [3] it was 9.1 µM. The logD in data set [4] was 1.1.
In data set [1], `O=C1N[C@@](c2cccc(Nc3ccc(F)cc3)n2)(c2cccc(Nc3ccc(F)c(F)c3)n2)CC(O)=C1Sc1ccccc1Cl` gave an IC50 of 0.0037 µM.
Still for that read-out and setting: the figure for `O=C1OC(c2ccsc2)(c2ccccc2F)CC(O)=C1Sc1ccccc1Cl` (stereo in doubt; 19) is 0.45 µM; for `Nc1cccc(C2(c3ccsc3)CC(O)=C(Sc3ccccc3Cl)C(=O)O2)c1` (stereo in doubt; 21) it is 0.19 µM; for `O=C1OC(c2ccccc2)(c2ccsc2)CC(O)=C1Sc1ccccc1Cl` (stereo in doubt; 5) it is 0.09 µM.
For the molecule `Nc1cccc(C2(c3ccccc3)CC(O)=C(Sc3ccccc3Cl)C(=O)O2)c1` (stereo in doubt; 23), the IC50 stood at 0.45 µM in data set [1] and 3.8 µM in data set [2].
`O=C1OC(c2ccccc2)(c2cscn2)CC(O)=C1Sc1ccccc1Cl` (stereo in doubt; 10): the figures for the IC50 in data set [1] and in data set [2] were 1.1 µM and 2.8 µM, respectively.
In the same order, the values of `O=C1OC(c2ccsc2)(c2ccccn2)CC(O)=C1Sc1ccccc1Cl` (stereo in doubt; 12) are 0.97 µM and 3.2 µM.
In data set [1], `O=C1NC(c2cccc(Nc3ccc(F)c(F)c3)n2)(c2cccc(NC3CCOCC3)n2)CC(O)=C1Sc1ccccc1Cl` (stereo in doubt; 37) yielded a half-maximal inhibitory concentration (IC50) of 0.055 µM.
On the same count and under the same terms, the figure for `O=C1OC(c2ccsc2)(c2ccccc2O)CC(O)=C1Sc1ccccc1Cl` (stereo in doubt; 17) is 0.022 µM.
Still for that read-out and setting: with `O=C1NC(c2ccsc2)(c2cccc(Nc3ccc(F)c(F)c3)n2)CC(O)=C1Sc1ccccc1Cl` (stereo in doubt; 39) the figure was 0.075 µM.
As to `O=C1OC(c2ccccc2)(c2ccccc2O)CC(O)=C1Sc1ccccc1Cl` (stereo in doubt; 15), the half-maximal inhibitory concentration (IC50) came out at 0.43 µM in data set [1] and 0.95 µM in data set [2].
Consider `O=C1NC(c2cccc(NCc3ccc(F)cc3)n2)(c2cccc(Nc3ccc(F)c(F)c3)n2)CC(O)=C1Sc1ccccc1Cl` (stereo in doubt; 42), for which it took 0.0086 µM to reach half-maximal inhibition in data set [1] (IC50). Besides, the logD in data set [4] was found to be 2.5.
With `O=C1NC(c2cccc(Nc3ccc(F)c(F)c3)n2)(c2cccc(Oc3ccccc3)n2)CC(O)=C1Sc1ccccc1Cl` (stereo in doubt; 44), the IC50 in data set [1] came out at 0.0025 µM; in data set [3], 5.3 µM. In data set [4], this molecule returned a logD of 2.6.
For the molecule `O=C1NC(c2ccc(N3CCOCC3)cc2)(c2cccc(Nc3ccc(F)cc3)n2)CC(O)=C1Sc1ccccc1Cl` (stereo in doubt; 49), in data set [1], the midpoint of inhibition, the IC50, lay at 0.011 µM.
For the molecule `O=C1OC(c2ccccn2)(c2ccccn2)CC(O)=C1Sc1ccccc1Cl`, the IC50 is 1.2 µM in data set [1] and 2.9 µM in data set [2].
`O=C1OC(c2ccsc2)(c2ccccc2F)CC(O)=C1Sc1ccccc1Cl` (stereo in doubt; 18): in data set [1], half-maximal inhibition (IC50) required 0.22 µM.
Take `Nc1cccc(C2(c3ccccc3)CC(O)=C(Sc3ccccc3Cl)C(=O)O2)c1` (stereo in doubt; 22): the IC50 is 0.13 µM in data set [1] and 0.25 µM in data set [2].
Consider `O=C1NC(c2cccc(Nc3ccc(F)c(F)c3)n2)(c2cccc(NC3CCOCC3)n2)CC(O)=C1Sc1ccccc1Cl` (stereo in doubt; 36), for which the IC50 in data set [1] came out at 0.0027 µM; in data set [3] it was 7.2 µM. In data set [4], the pH-dependent lipophilicity (logD) was 2.4.
For the molecule `O=C1NC(c2cccc(Nc3ccc(F)c(F)c3)n2)(c2cccc(Oc3ccccc3)n2)CC(O)=C1Sc1ccccc1Cl` (stereo in doubt; 45), it took 0.0032 µM to reach half-maximal inhibition in data set [1] (IC50).
On the same count and under the same terms, with `O=C1OC(c2ccccc2)(c2ccccn2)CC(O)=C1Sc1ccccc1Cl` (stereo in doubt; 2) the figure was 0.92 µM.
As for `O=C1NC(c2cccc(Nc3ccc(F)c(F)c3)n2)(c2cccc(Oc3cccc4ncccc34)n2)CC(O)=C1Sc1ccccc1Cl` (stereo in doubt; 46), the concentration for half-maximal inhibition (IC50) in data set [1] was 0.0038 µM; in data set [2] it was 0.025 µM; in data set [3], 3.6 µM. Also, the logD in data set [4] was 2.2.
Regarding `O=C1OC(c2ccccc2)(c2cccs2)CC(O)=C1Sc1ccccc1Cl` (stereo in doubt; 8), the IC50 in data set [1] amounted to 0.22 µM; in data set [2] it was 1.5 µM.
For the molecule `CC(=O)Nc1cccc(C2(c3ccsc3)CC(O)=C(Sc3ccccc3Cl)C(=O)O2)c1` (racemic), in data set [1], the IC50 is 0.043 µM.
In data set [1], `O=C1NC(c2ccc(N3CCOCC3)cc2)(c2cccc(Nc3ccc(F)cc3)n2)CC(O)=C1Sc1ccccc1Cl` (stereo in doubt; 48) yielded an IC50 of 0.0025 µM. The log distribution coefficient (logD) in data set [4] was determined as 2.
On to `O=C1OC(c2ccccc2)(c2cccs2)CC(O)=C1Sc1ccccc1Cl` (stereo in doubt; 7), for which the results for the IC50 in data set [1] and in data set [2] were 0.12 µM and 1.3 µM, respectively.
Molecule `O=C1OC(c2ccsc2)(c2cccc(Nc3ccc(F)cc3)n2)CC(O)=C1Sc1ccccc1Cl` (stereo in doubt; 31) came in with a half-maximal inhibitory concentration (IC50) in data set [1] of 0.0069 µM. In other words, the single-digit nanomolar range.
`O=C1NC(c2cccc(Nc3ccc(F)c(F)c3)n2)(c2cccc(NC3CCCCC3)n2)CC(O)=C1Sc1ccccc1Cl` (stereo in doubt; 34): the IC50 came to 0.0009 µM in data set [1] and 2.2 µM in data set [3]. This molecule displayed a logD in data set [4] of 2.6.
In data set [1], `O=C1O[C@@](c2ccsc2)(c2cccc(Nc3ccc(F)cc3)c2)CC(O)=C1Sc1ccccc1Cl` showed an IC50 of 0.004 µM.
On the same count and under the same terms, the figure for `O=C1OC(c2ccccc2)(c2ccsc2)CC(O)=C1Sc1ccccc1Cl` (stereo in doubt; 6) is 0.43 µM.
Same read-out and setting: with `O=C1NC(c2cccc(NCc3ccc(F)cc3)n2)(c2cccc(Nc3ccc(F)c(F)c3)n2)CC(O)=C1Sc1ccccc1Cl` (stereo in doubt; 43) the figure was 0.16 µM; with `O=C1OC(c2ccsc2)(c2cccc(NCC(F)(F)F)c2)CC(O)=C1Sc1ccccc1Cl` (racemic), 0.066 µM.
Turning to `O=C1NC(c2ccc(N3CCOCC3)cc2)(c2cccc(Oc3ccc(F)cc3)n2)CC(O)=C1Sc1ccccc1Cl` (stereo in doubt; 50), the fraction unbound in data set [5] amounted to 0.001. Besides, the IC50 in data set [1] was found to be 0.0018 µM; in data set [3] it was 1.7 µM. Also, the Papp A→B at 100 µM in data set [6] was found to be 2.2 ×10⁻⁶ cm/s. The same molecule showed a logD in data set [4] of 1.9.
For `O=C1OC(c2ccsc2)(c2cccc(Nc3ccc(F)cn3)c2)CC(O)=C1Sc1ccccc1Cl` (stereo in doubt; 29), in data set [1], the IC50 was found to be 0.063 µM.
With `O=C1OC(c2ccccc2)(c2cscn2)CC(O)=C1Sc1ccccc1Cl` (stereo in doubt; 9), the values for the IC50 in data set [1] and in data set [2] were 0.18 µM and 0.55 µM, respectively.

The values above are taken from ChEMBL document CHEMBL5136995, “Structure-based optimization of hydroxylactam as potent, cell-active inhibitors of lactate dehydrogenase” (Bioorg Med Chem Lett, 2022).
